Literature values, collected in patent publication US20080280370A1, “METHODS AND COMPOSITIONS FOR DETECTING […] METABOLITES THEREOF” (priority 2007, published 2008).

What was measured:
[1] = target: T1, EPSPS (enolpyruvylshikimate-3-phosphate synthase) enzyme (Arabidopsis thaliana, UniProt P05466); settings: enzyme required for biosynthesis of aromatic amino acids in plants
T1 sequence (P05466 77-520): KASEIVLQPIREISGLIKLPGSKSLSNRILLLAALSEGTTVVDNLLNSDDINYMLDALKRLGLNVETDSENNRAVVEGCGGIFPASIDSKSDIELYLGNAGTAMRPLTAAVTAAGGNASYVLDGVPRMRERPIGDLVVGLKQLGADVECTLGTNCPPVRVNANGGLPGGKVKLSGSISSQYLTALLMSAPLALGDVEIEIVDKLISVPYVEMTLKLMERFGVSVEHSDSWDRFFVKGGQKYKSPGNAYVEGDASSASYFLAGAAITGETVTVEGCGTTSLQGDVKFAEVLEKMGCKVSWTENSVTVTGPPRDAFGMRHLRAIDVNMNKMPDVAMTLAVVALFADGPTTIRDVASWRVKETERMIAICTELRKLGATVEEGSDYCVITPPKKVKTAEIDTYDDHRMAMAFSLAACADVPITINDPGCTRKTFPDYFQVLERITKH

[2] = system: plants; settings: metabolite formed by glyat acetylation; Castle et al. (2004)

| SMILES | Effect on EPSPS enzyme [1] | Phytotoxicity [2] |
| --- | --- | --- |
| O=C(O)CNCP(=O)(O)O [glyphosate, N-(phosphonomethyl)glycine] | inhibits |  |
| CC(=O)N(CC(=O)O)CP(=O)(O)O [N-acetylglyphosate, N-Acetyl-N-(phosphonomethyl)glycine] |  | non-phytotoxic |
